This assay concerns the target T1, human GPR84 receptor (Homo sapiens, UniProt Q9NQS5).
T1 construct: host or cells: HEK293 cells, transient transfection
Put plainly: Gαi biosensor BRET assay in HEK293 cells transfected with GPR84, stimulated with the GPR84 agonist ZQ-16. The note with it: 200 nmol/L ZQ-16; for inhibition at 10 µM / inhibition at 2 µM: HEK293, single concentration; for inhibition at 10 µM: concentration class F = 10 μM; for inhibition at 2 µM: concentration class A = 2 μM. It is filed as cell-based. The source says: Background—The following assays can be used for determination of GPR84 activation in living HEK293 cells. The Gαi BRET biosensor (Gagnon et al., 2018; Gales et al., 2006. Nat Struct Mol Biol. 13, 778-86; Saulieres et al., 2012. Nat Chem Biol. 8, 622-30) allows to directly monitor GPR84-mediated activation of Gαi. The Gαi biosensor consists of a Rluc8-tagged Gαi2 subunit, a GFP10-tagged Gγ2 subunit, and an untagged GB1. Agonist stimulation and GPR84 activation triggers a physical separation between the RLuc8-Gαi donor and the GFP10-Gγ2 acceptor, resulting in a decrease in BRET signal whose amplitude is correlated to ligand efficacy (Gales et al., 2006). Moreover, signaling functions of GPCRs are tightly regulated by endocytosis, the targeting of receptors to endosomes and their sorting to lysosomes or recycling to the plasma membrane. The early endosomes (EEs) trafficking assay (Namkung et al., 2016. Nat Commun. 7, 12178) uses Rluc8-tagged GPR84 and Renilla GFP (rGFP) attached to the FYVE domain from human endofin/zinc finger FYVE domain-containing protein 16, which binds phosphatidylinositol 3-phosphate in EEs. Agonist stimulation of GPR84-Rluc8 leads to trafficking of the receptor to EEs, and ensuing increase of the donor concentration relative to the rGFP-FYVE acceptor anchored in the same cellular compartment, and thus results in an increase in BRET signal.
Plasmids—The cDNA clones for human GPR84 receptor, human Gαi2, Gβ1, and Gγ2 were obtained from the cDNA Resource Center (www.cdna.org). GFP10 (F64L, S147P, S202F and H231L variant of Aequorea victoria Green Fluorescent Protein) gBlocks gene fragments (Integrated DNA Technologies, IA) and linker were inserted in frame at the N-terminus of human Gγ2. Rluc8 (A^55T, Cl24A, S130A, K136R, A^143M, M185V, M253L, and S287L variant of the Renilla reniformis luciferase) gBlocks gene fragment was inserted with linkers in frame in between residues 91 and 92 of Gαi2 or at the C-terminus of GPR84. The FYVE domain from human endofin (residues Q739 to K806) attached in frame at the C terminus of a humanized Renilla GFP (rGFP), were synthesized as gBlocks gene fragments.
Bioluminescence Resonance Energy Transfer (BRET) Measurement-HEK293 cells were transfected with GPR84-Rluc8 and rGFP-FYVE for the EEs trafficking biosensor or with GPR84, Gαi2-Rluc8, GFP10-Gγ2, and Gβ1 for the Gαi biosensor. The following day, transiently transfected cells were seeded in 96-well white clear bottom microplates coated with poly-D-lysine and left in culture for 24 hours. Cells were washed once with Tyrode's buffer (140 mmol/L NaCl, 1 mmol/L CaCl2, 2.7 mmol/L KCl, 0.49 mmol/L MgCl2, 0.37 mmol/L NaH2PO4, 5.6 mmol/L glucose, 12 mmol/L NaHCO3, and 25 mmol/L HEPES, pH 7.5) before performing assays in Tyrode's buffer. Test compounds were incubated with cells for 5 (Gai) or 15 (EEs) minutes at 37° C. before addition of 200 nmol/L of the GPR84 agonist ZQ-16 (2-(Hexylthio)-6-hydroxy-4 (3H)-pyrimidinone) for 5 minutes at room temperature (Gai) or 30 minutes at 37° C. (EEs). The Rluc8 substrate coelenterazine 400A (Prolume, Lakeside, AZ) was added at a final concentration of 5 μmol/L and BRET readings were collected using an Infinite M1000 microplate reader (Tecan, Morrisville, NC). BRET2 readings between Rluc8 and GFP10 or rGFP were collected by sequential integration of the signals detected in the 370 to 450 nm (Rluc8) and 510 to 540 nm (GFP10, rGFP) windows. The BRET signal was calculated as the ratio of light emitted by acceptor (GFP10, rGFP) over the light emitted by donor (Rluc8). The values were corrected to net BRET by subtracting the background BRET signal obtained in cells transfected with Rluc8 constructs alone. Ligand-promoted net BRET values were calculated by subtracting vehicle-induced net BRET from ligand-induced net BRET.
(In BRET a luciferase serves as donor, and the signal depends on an acceptor being close.)

Molecules are shown by their SMILES.

T1 sequence (Q9NQS5 whole entry): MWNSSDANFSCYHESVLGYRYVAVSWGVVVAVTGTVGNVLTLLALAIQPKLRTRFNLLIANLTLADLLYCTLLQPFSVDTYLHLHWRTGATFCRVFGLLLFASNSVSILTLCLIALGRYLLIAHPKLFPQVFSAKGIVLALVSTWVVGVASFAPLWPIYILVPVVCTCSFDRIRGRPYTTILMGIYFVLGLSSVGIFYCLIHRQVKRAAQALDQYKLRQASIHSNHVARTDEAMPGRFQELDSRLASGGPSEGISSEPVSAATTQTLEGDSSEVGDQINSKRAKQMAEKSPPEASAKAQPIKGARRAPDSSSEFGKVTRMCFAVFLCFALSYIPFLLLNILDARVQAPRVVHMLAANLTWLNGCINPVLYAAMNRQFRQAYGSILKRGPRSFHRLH

In the case of `CCc1cc(C#CC(N)=O)ccc1-c1cn(CC2OCC(C)(C)CO2)nn1` [Compound I-37], the IC50 – broadly, the midpoint of a concentration-inhibition curve – is at most 300 nM and the inhibition (in general, the relative decrease from the control value, in per cent) at 10 µM is above 75%.

`Cn1cc(-c2cnc(-c3cn(CC4OCC5(CC5)CO4)nn3)c(OC3CC3)c2)cn1` [Compound I-239] returned an IC50 of at most 300 nM and an inhibition at 10 µM above 75%.

The compound `CN(C)c1cc(N2CC(C)(CO)C2)ccc1-c1cn(CC2OCC3(CC3)CO2)cn1` [Compound I-41] registered an IC50 of at most 300 nM and an inhibition at 2 µM above 75%.

On to `Cc1cc(C#CC2CC2)ccc1-c1cn(Cc2cnco2)nn1` [Compound I-33], for which the inhibition at 10 µM was at most 25%.

In turn, `C(#CC1CC1)c1cnc(-c2cn(Cc3cc4ccccc4[nH]3)nn2)c(OC2CC2)c1` [Compound I-70] had an inhibition at 10 µM of at most 25%.

In turn, `CN(c1cn(CC2OCC(C)(C)CO2)nn1)c1cc(C#N)ccc1Cl` [Compound I-159] showed an inhibition at 10 µM of 25 to 50%.

In turn, `Cc1cc(C#CC2CC2)ccc1-c1cn(Cc2cscn2)nn1` [Compound I-19] registered an inhibition at 2 µM of at most 25%.

The compound `Clc1cc(N2CCN(Cc3ccccn3)CC2)cnc1-c1cn(CC2OCC3(CC3)CO2)cn1` [Compound I-212] returned an inhibition at 10 µM of 50 to 75%.

For the compound `CC1(CO)CN(c2cnc(-c3cn(CC4CC5(CC5)CO4)nn3)c(OC3CC3)c2)C1` (stereo not drawn) [Compound I-26], the inhibition at 10 µM is above 75%.

With `Clc1cc(N2CCN(Cc3ccccn3)CC2)cnc1-c1cncn1CC1OCC2(CC2)CO1` [Compound I-214], the inhibition at 10 µM fell in the range of 50 to 75%.

`CN(C)C(=O)c1cnc(-c2cn(CC3OCC4(CC4)CO3)nn2)c(OC2CC2)c1` [Compound I-61] came in with an inhibition at 10 µM of 25 to 50%.

`c1c[nH]c(-c2cnc(-c3cn(CC4OCC5(CC5)CO4)nn3)c(OC3CC3)c2)n1` [Compound I-229] returned an inhibition at 10 µM of at most 25%.

`c1n[nH]cc1-c1cnc(-c2cn(CC3OCC4(CC4)CO3)nn2)c(OC2CC2)c1` [Compound I-236] had a concentration for half-maximal inhibition (IC50) of 300 to 1000 nM and an inhibition at 10 µM above 75%.

Take `O=C(Cn1cc(-c2nc(O)c(C#CC3CC3)cc2OC2CC2)nn1)N1CCCC1` [Compound I-249]: the inhibition at 2 µM is at most 25%.

Turning to `CC1(C)COC(Cn2cc(-c3ncc(CC#N)cc3OC3CC3)nn2)OC1` [Compound I-40], the inhibition at 10 µM lay within 50 to 75%.

Consider `O=C(Cn1cc(-c2ncc(C#CC3CC3)cc2OC2CC2)nn1)N1CC[C@H](O)C1` [Compound I-244], for which the half-maximal inhibitory concentration (IC50) fell in the range of 1000 to 3000 nM and the inhibition at 10 µM was above 75%.

As for `CN(C)c1cc(N2CCN(Cc3ccccn3)CC2)ccc1-c1cn(CC2OCC(C)(C)CO2)cn1` [Compound I-137], the inhibition at 10 µM was at most 25%.

In turn, `CN(C)c1cc(N2CC(C)(CO)C2)ccc1-c1cn(CC2OCC(C)(C)CO2)cn1` [Compound I-39] yielded an IC50 of 300 to 1000 nM and an inhibition at 10 µM above 75%.

For `Clc1cc(N2CCN(Cc3ccccn3)CC2)cnc1-c1c[nH]cn1` [Compound I-215], the inhibition at 10 µM is at most 25%.

With `CN(C)c1cc(N2CC3(CC(O)C3)C2)ccc1-c1cn(CC2OCC3(CC3)CO2)nn1` (stereo not drawn) [Compound I-7, 2-(4-(1-(5,7-dioxaspiro[2.5]octan-6-ylmethyl)-1H-1,2,3-triazol-4-yl)-3-(dimethylamino)phenyl)-2-azaspir[3.3]heptan-6-ol], the inhibition at 10 µM was above 75%.

`CC1(C)COC(Cn2cc(-c3ncc(C#CCNC4CC(F)(F)C4)cc3OC3CC3)nn2)OC1` [Compound I-38] registered an IC50 of at most 300 nM and an inhibition at 2 µM above 75%.

With `CN1CCN(C(=O)Cn2cc(-c3ncc(C#CC4CC4)cc3OC3CC3)nn2)CC1` [Compound I-266], the inhibition at 10 µM was 25 to 50%.

For `CN(C)C(=O)Cn1cc(-c2ncc(C#CC3(O)CC3)cc2OC2CC2)nn1` [Compound I-252], the inhibition at 10 µM was above 75%.

Compound `O=C(Cn1cc(-c2ncc(-c3nnn[nH]3)cc2OC2CC2)nn1)N1CCCC1` [Compound I-233] displayed an inhibition at 10 µM of 25 to 50%.

`N=C(N)c1cnc(-c2cn(CC3OCC4(CC4)CO3)nn2)c(OC2CC2)c1` [Compound I-265] returned an inhibition at 10 µM of 25 to 50%.

In the case of `CC1(C)COC(Cn2cc(-c3ncc(C#CCN4CC(C)(CO)C4)cc3OC3CC3)nn2)OC1` [Compound I-143], the inhibition at 2 µM is above 75%.

`N#Cc1cnc(-c2cn(CC(=O)N3CCCC3)nn2)c(OC2CC2)c1` [Compound I-241]: the inhibition at 10 µM lay within 25 to 50%.

Turning to `CN(C)C(=O)CCn1cc(-c2ncc(C#CC3CC3)cc2OC2CC2)nn1` [Compound I-213], the inhibition at 10 µM fell in the range of 25 to 50%.

Regarding `CN(C)C(=O)Cn1cc(-c2ccc(N3CC(C)(CO)C3)cc2N(C)C)nn1` [Compound I-24], the IC50 lay within 1000 to 3000 nM and the inhibition at 10 µM was above 75%.

`Cc1ccc(C#CC2CC2)cc1C(F)(F)c1cn(CC2OCC3(CC3)CO2)nn1` [Compound I-264] had an inhibition at 2 µM above 75%.

For `c1nc(-c2cn(CC3OCC4(CC4)CO3)nn2)c(OC2CC2)cc1-c1cnn[nH]1` [Compound I-224], the concentration for half-maximal inhibition (IC50) is at most 300 nM and the inhibition at 2 µM was above 75%.

In the case of `Cc1cc(C#CC2CC2)ccc1-c1cn(Cc2cncs2)nn1` [Compound I-12], the inhibition at 2 µM is at most 25%.

Turning to `O=C(Cn1cc(-c2ncc(C#CC3CC3)cc2OC2CC2)nn1)N1CC[C@@H](O)C1` [Compound I-245], the half-inhibitory concentration (IC50) fell in the range of 1000 to 3000 nM and the inhibition at 10 µM was above 75%.

Take `C(#CC1CCC1)c1cnc(-c2cn(CC3OCC4(CC4)CO3)nn2)c(OC2CC2)c1` [Compound I-6]: the inhibition at 2 µM was above 75%.

As for `CC(=O)NCC#Cc1cnc(-c2cn(CC3OCC(C)(C)CO3)nn2)c(OC2CC2)c1` [Compound I-15], the concentration for half-maximal inhibition (IC50) was at most 300 nM and the inhibition at 2 µM was above 75%.

As for `CN(C)C(=O)Cn1cc(-c2ncc(C#CC3CC3)cc2OC2CC2)cn1` [Compound I-216], the inhibition at 10 µM is at most 25%.

Turning to `CC1(C)COC(Cn2cc(Cc3cc(C#CC4CC4)ccc3Cl)nn2)OC1` [Compound I-136], the IC50 was 1000 to 3000 nM and the inhibition at 10 µM is above 75%.

The compound `C(#CC1CC1)Cn1cc(-c2ncc(-c3nnn[nH]3)cc2OC2CC2)nn1` [Compound I-234] had an inhibition at 10 µM above 75%.

`OC1(C#Cc2cnc(-c3cn(CC4OCC5(CC5)CO4)nn3)c(OC3CC3)c2)CC1` [Compound I-35]: the concentration for half-maximal inhibition (IC50) is at most 300 nM and the inhibition at 2 µM is above 75%.

In turn, `Cc1cc(N2CCN(Cc3ccccn3)CC2)ccc1-c1cn(CC2OCC3(CC3)CO2)cn1` [Compound I-139] gave an inhibition at 10 µM above 75%.

As to `Cn1cc(-c2cnc(-c3cn(CC4OCC5(CC5)CO4)nn3)c(OC3CC3)c2)nn1` [Compound I-227], the IC50 was at most 300 nM and the inhibition at 2 µM was above 75%.

As for `Cc1cc(C#CC2CC2)ccc1-c1nnc(-c2cn(CC3OCC4(CC4)CO3)nn2)o1` [Compound I-220], the IC50 was 300 to 1000 nM and the inhibition at 10 µM was above 75%.

With `CC1(C)COC(Cn2cc(-c3ncc(C#CCNS(C)(=O)=O)cc3OC3CC3)nn2)OC1` [Compound I-36], the 50% inhibitory concentration (IC50) was at most 300 nM and the inhibition at 2 µM was above 75%.

Turning to `O=C(NC1CC1)c1cnc(-c2cn(CC3OCC4(CC4)CO3)nn2)c(OC2CC2)c1` [Compound I-57], the inhibition at 10 µM was in the range of 25 to 50%.

(Values after patent US20260256747A1, “ARYL-TRIAZOLYL AND RELATED GPR84 ANTAGONISTS AND USES THEREOF” (Liminal BioSciences Limited, priority 2022, published 2026).)
